Reference: patent EP1000025B1, “SUBSTITUTED NAPHTHOPYRANS” (TRANSITIONS OPTICAL, INC., priority 1997, dated 1998)

Experiment: Photochromic response of test square polymerizates on an optical bench
Format: physicochemical
Conditions: for ΔOD@ SATURATION: UV exposure continued for 20 minutes; for ΔOD@ SATURATION / ΔOD/MIN SENSITIVITY: test squares by method 1, 75°F (23.9°C); for ΔOD/MIN SENSITIVITY: measured over the first five (5) seconds of UV exposure, expressed on a per minute basis; for Bleach (T1/2): time for absorbance of the activated form to reach one half the highest absorbance at room temperature (75°F, 23.9°C) after removal of activating light, method 1; for LAMBDA MAX (VISIBLE): wavelength in the visible spectrum of maximum absorption of the activated (colored) form, diethylene glycol bis(allyl carbonate) composition
Procedure: Testing was done with the photochromic naphthopyrans of the Examples incorporated or imbibed into test square polymerizates by one of two different methods. In Method I, the photochromic naphthopyrans of the Examples were incorporated into polymeric samples. The quantity of naphthopyran calculated to yield a 1.5 times 10^-3 molal solution was added to a flask containing 50 grams of a monomer blend of 4 parts ethoxylated bisphenol A dimethacrylate (BPA 2EO DMA), 1 part poly(ethyleneglycol) 600 dimethacrylate, and 0.033 weight percent 2,2'-azobis(2-methyl propionitrile) (AIBN). The naphthopyrans were dissolved into the monomer blend by stirring and gentle heating, if necessary. After a clear solution was obtained, it was poured into a flat sheet mold having the interior dimensions of 2.2 mm x 6 inches (15.24 cm) x 6 inches (15.24 cm). The mold was sealed and placed in a horizontal air flow, programmable oven set to increase the temperature from 40°C. to 95°C. over a 5 hour interval, hold the temperature at 95°C. for 3 hours and then lower it to 60°C. for at least 2 hours before the end of the curing cycle. After the molds were opened, the polymer sheets were cut using a diamond blade saw into 2 inch (5.1 centimeters) test squares.
In Method II, the photochromic naphthopyran was imbibed into test square polymerizates prepared from a diethylene glycol bis(allyl carbonate) composition. The test squares measured 1/8 inch (0.3 centimeters) x 2 inches (5.1 centimeters) x 2 inches (5.1 centimeters). In the imbibition process, the photochromic naphthopyran was dissolved to form a 10 weight percent solution in a 1:9 mixture of ethyl cellulose:toluene. The solution was then spin coated onto the test squares and allowed to dry. Samples were then heated in a hot-air oven at 135-155°C for a period of time sufficient to thermally transfer the photochromic into the test squares. […] After cooling, the ethyl cellulose/toluene resin film was removed from the test squares by washing with acetone.
The photochromic test squares were tested for photochromic response rates on an optical bench. Prior to testing on the optical bench, the photochromic test squares were exposed to 365 nanometer ultraviolet light for about 15 minutes to activate the photochromic compounds and then placed into a 76°C oven for about 15 minutes to bleach or inactivate the photochromic compounds. The test squares were then cooled to room temperature, exposed to fluorescent room lighting for at least 2 hours and then kept covered for at least 2 hours prior to testing on an optical bench maintained at 75°F (23.9°C). The bench was fitted with a 150 watt Xenon arc lamp, a remote controlled shutter, a copper sulfate bath acting as a heat sink for the arc lamp, a Schott WG-320 nm cut-off filter which removes short wavelength radiation; neutral density filter(s) and a sample holder in which the square to be tested was inserted. A collimated beam of light from a tungsten lamp was passed through the square at a small angle normal to the square. After passing through the square, the light from the tungsten lamp was directed through a photopic filter attached to a detector. The photopic filter passes wavelengths such that the detector mimics the response of the human eye. The output signals from the detector(s) were processed by a radiometer.
Change in optical density (ΔOD) was determined by inserting a test square in the bleached state into the sample holder, adjusting the transmittance scale to 100%, opening the shutter from the Xenon lamp to provide ultraviolet radiation to change the test square from the bleached state to an activated (i.e., darkened) state, measuring the transmittance in the activated state, and calculating the change in optical density according to the formula Δ OD=log(100/%Ta) where %Ta is the percent transmittance in the activated state and the logarithm is to the base 10. […]

| Structure (SMILES) | ΔOD@ SATURATION | ΔOD/MIN SENSITIVITY | Bleach (T1/2) [min] | LAMBDA MAX (VISIBLE) |
| --- | --- | --- | --- | --- |
| COC(=O)c1c2c(c3ccccc3c1O)OC(c1ccccc1)(c1ccc(N3CCOCC3)cc1)C=C2 (stereo not drawn) [Example 1, 2-(4-morpholinophenyl)-2-phenyl-5-methoxycarbonyl-6-hydroxy-2H-naphtho[1,2-b]pyran] | 1.36 | 0.64 | 3.22 | 511 |
| COC(=O)c1c2c(c3ccccc3c1OC(C)=O)OC(c1ccccc1)(c1ccc(N(C)C)cc1)C=C2 (stereo not drawn) [Example 4, 2-(4-dimethylaminophenyl)-2-phenyl-5-methoxycarbonyl-6-acetoxy-2H-naphtho[1,2-b]pyran] | 0.30 | 0.27 | 1.17 | 591 |
| COC(=O)c1c2c(c3ccccc3c1OC)OC(c1ccccc1)(c1ccc(N3CCOCC3)cc1)C=C2 (stereo not drawn) [Example 2, 2-(4-morpholinophenyl)-2-phenyl-5-methoxycarbonyl-6-methoxy-2H-naphtho[1,2-b]pyran] | 0.95 | 0.29 | 4.87 | 541 |
| COC(=O)c1c2c(c3ccccc3c1C)OC(c1ccccc1)(c1ccc(N(C)C)cc1)C=C2 (stereo not drawn) [Example 5, 2-(4-dimethylaminophenyl)-2-phenyl-5-methoxycarbonyl-6-methyl-2H-naphtho[1,2-b]pyran] | 0.51 | 0.20 | 3.33 | 584 |
| COC(=O)c1c2c(c3ccccc3c1OC(C)=O)OC(c1ccccc1)(c1ccc(N3CCOCC3)cc1)C=C2 (stereo not drawn) [Example 3, 2-(4-morpholinophenyl)-2-phenyl-5-methoxycarbonyl-6-acetoxy-2H-naphtho[1,2-b]pyran] | 0.31 | 0.24 | 1.47 | 545 |
| COC(=O)c1c2c(c3ccccc3c1OC(C)=O)OC(c1ccc(N(C)C)cc1)(c1ccc(N(C)C)cc1)C=C2 [Example 6, 2,2-bis(4-dimethylaminophenyl)-5-methoxycarbonyl-6-acetoxy-2H-naphtho[1,2-b]pyran] | 0.07 | 0.16 | 0.317 | 618 |
